The NIST ThermoML archive (doi:10.1021/je700260f)

Settings: Liquid, Vibrating tube method

FC(C(F)(F)F)C(F)(F)F [1,1,1,2,3,3,3-heptafluoropropane]
Settings | mass density [kg/m3]
293.14 K, 33440 kPa | 1551.5
293.14 K, 33474 kPa | 1551.5
293.14 K, 33518 kPa | 1551.7
293.14 K, 33554 kPa | 1551.8
293.14 K, 33589 kPa | 1552
293.15 K, 458 kPa | 1409.2
293.15 K, 459 kPa | 1409.3
293.15 K, 461 kPa | 1409.2
293.15 K, 466 kPa | 1409.3
293.15 K, 478 kPa | 1409.2
293.15 K, 498 kPa | 1409.3
293.15 K, 525 kPa | 1409.6
293.15 K, 545 kPa | 1409.8
293.15 K, 569 kPa | 1409.9
293.15 K, 591 kPa | 1410.2
293.15 K, 616 kPa | 1410.3
293.15 K, 647 kPa | 1410.5
293.15 K, 682 kPa | 1410.9
293.15 K, 712 kPa | 1411
293.15 K, 757 kPa | 1411.3
293.15 K, 1646 kPa | 1417.7
293.15 K, 1682 kPa | 1417.8
293.15 K, 1714 kPa | 1418.1
293.15 K, 1855 kPa | 1419.1
293.15 K, 2431 kPa | 1422.8
293.15 K, 2456 kPa | 1423.1
293.15 K, 2481 kPa | 1423.1
293.15 K, 2506 kPa | 1423.3
293.15 K, 2536 kPa | 1423.7
293.15 K, 2566 kPa | 1423.7
293.15 K, 2590 kPa | 1424
293.15 K, 2619 kPa | 1424.2
293.15 K, 2653 kPa | 1424.3
293.15 K, 3787 kPa | 1431.6
293.15 K, 3853 kPa | 1432
293.15 K, 3906 kPa | 1432.2
293.15 K, 3939 kPa | 1432.5
293.15 K, 3976 kPa | 1432.7
293.15 K, 4019 kPa | 1432.9
293.15 K, 4053 kPa | 1433.1
293.15 K, 4077 kPa | 1433.4
293.15 K, 4124 kPa | 1433.7
293.15 K, 4157 kPa | 1434
293.15 K, 4195 kPa | 1434
293.15 K, 4219 kPa | 1434.2
293.15 K, 4259 kPa | 1434.4
293.15 K, 4286 kPa | 1434.6
293.15 K, 4322 kPa | 1434.7
293.15 K, 4367 kPa | 1435
293.15 K, 4394 kPa | 1435.3
293.15 K, 4425 kPa | 1435.6
293.15 K, 4452 kPa | 1435.7
293.15 K, 4488 kPa | 1435.9
293.15 K, 4515 kPa | 1435.9
293.15 K, 4556 kPa | 1436.2
293.15 K, 4587 kPa | 1436.4
293.15 K, 4614 kPa | 1436.6
293.15 K, 4655 kPa | 1436.8
293.15 K, 4687 kPa | 1437
293.15 K, 4727 kPa | 1437.2
293.15 K, 4754 kPa | 1437.4
293.15 K, 4791 kPa | 1437.7
293.15 K, 4815 kPa | 1437.8
293.15 K, 4846 kPa | 1438.1
293.15 K, 5062 kPa | 1439.2
293.15 K, 5095 kPa | 1439.5
293.15 K, 5137 kPa | 1439.6
293.15 K, 5170 kPa | 1440
293.15 K, 5198 kPa | 1440
293.15 K, 5231 kPa | 1440.3
293.15 K, 5259 kPa | 1440.4
293.15 K, 5292 kPa | 1440.6
293.15 K, 5321 kPa | 1440.8
293.15 K, 5364 kPa | 1440.9
293.15 K, 5392 kPa | 1441.2
293.15 K, 5435 kPa | 1441.5
293.15 K, 5472 kPa | 1441.7
293.15 K, 5500 kPa | 1441.9
293.15 K, 5537 kPa | 1442.1
293.15 K, 5566 kPa | 1442.2
293.15 K, 5610 kPa | 1442.3
293.15 K, 5639 kPa | 1442.6
293.15 K, 5678 kPa | 1442.8
293.15 K, 5720 kPa | 1443
293.15 K, 5755 kPa | 1443.2
293.15 K, 5784 kPa | 1443.4
293.15 K, 5818 kPa | 1443.6
293.15 K, 5848 kPa | 1443.8
293.15 K, 5896 kPa | 1444
293.15 K, 5921 kPa | 1444.1
293.15 K, 5955 kPa | 1444.4
293.15 K, 5984 kPa | 1444.6
293.15 K, 6018 kPa | 1444.7
293.15 K, 6043 kPa | 1444.8
293.15 K, 6073 kPa | 1445
293.15 K, 6113 kPa | 1445.2
293.15 K, 6138 kPa | 1445.5
293.15 K, 6174 kPa | 1445.6
293.15 K, 6205 kPa | 1445.7
293.15 K, 6235 kPa | 1445.9
293.15 K, 6260 kPa | 1446.1
293.15 K, 6295 kPa | 1446.2
